Source: patent US20260102407A1, “TREATMENT METHODS” (priority 2020, published 2026)
≈ marks a conversion by molar mass, not a printed value. Entries after “also recorded” stand apart in the source; their conditions may differ.

What was measured:
HMEC-1 = assay: Endothelial network formation assay on Matrigel; type: cell-based, human
Experimental: Endothelial network formation assay. HMEC-1 (4×10^4 cells/well) in MCDB131 containing 1% FBS and compound (1 or 3 μM) or curcumin (1-40 μM) and 50 ng/ml FGF-2 were added to 96-well plates coated overnight at 4° C. with 100 μl of growth factor-reduced reconstituted basement membrane matrix (Matrigel, cat. 354230, Corning, NY). Network formation was observed over subsequent hours and photographed under 4× or 10× objective using an Olympus CKX41 microscope.

ERK phosphorylation = assay: Western blot, IL-1β-inducible ERK phosphorylation in HMEC-1; type: cell-based, human; conditions: 20 ng/ml IL-1β 15 min
Experimental: Western blot analysis with extracts of cells treated with […]. HMEC-1 (80-90% confluency) were arrested in serum-free MCDB131 medium (Invitrogen, MD) without any growth factor for 48 h. Cells were treated with 30 μM compound in serum-free medium for 4 h, and incubated with 20 ng/ml IL-1β (Sigma, cat. SRE3083) in serum-free medium with the same concentration of compound for up to 4 h, unless otherwise indicated. Total protein was harvested as previously described using RIPA buffer with protease inhibitors. Proteins were resolved on 4-20% (w/v) SDS-polyacrylamide gradient gels and transferred to Immobilon-P PVDF membranes. Membranes were blocked with 5% skim milk and incubated with rabbit monoclonal FosB (cat. 2251S, 1:1000, Cell Signaling, USA), rabbit monoclonal VCAM-1 (cat. 13662S, 1:1000, Cell Signaling, USA), rabbit monoclonal p44/42 MAPK (cat. 4695S, 1:1000, Cell Signaling, USA), rabbit polyclonal p38 MAPK (cat. 9212S, 1:1000, Cell Signaling, USA), rabbit polyclonal SAPK/JNK (cat. 9252S, 1:1000, Cell Signaling, USA), rabbit monoclonal phospho-SAPK/JNK (cat. 4671S, 1:1000, Cell Signaling, USA), rabbit monoclonal phospho-p38 MAPK (cat. 4511S, 1:1000, Cell Signaling, USA), or, mouse monoclonal phospho-p44/42 MAPK antibodies (cat. 9106S, 1:2000, Cell Signaling, USA) at 4° C. overnight or mouse monoclonal β-actin antibodies (cat. A5316, 1:10000, Sigma-Aldrich) antibodies at 22° C. for 1 h. Membranes were then incubated with horseradish peroxidase conjugated secondary goat anti-rabbit (cat. P0448, 1:1000, DAKO Cytomation, Denmark) or goat anti-mouse (cat. P0447, 1:1000, DAKO Cytomation, Denmark) antibodies for 1 h. Chemiluminescence was detected using the Western Lightning Chemiluminescence system and ImageQuant™ LAS 4000 biomolecular imager. Band intensity in images generated with the LAS 4000 using the same settings were quantified by NIH ImageJ.

[1] = molecular target: T1, Recombinant human His-MEK1 (Homo sapiens, UniProt Q02750); assay: SPR (Biacore T200) on immobilised His-MEK1; type: binding; conditions: 15° C.; 20 mM HEPES, 150 mM NaCl, 5% DMSO pH 7.4
T1 construct: purchased ThermoFisher Scientific PV3303
Experimental: (§1) SPR. SPR was performed on a Biacore T200. The active and reference flow cells of a Xantec NIHMC Ni sensor chip were conditioned with 0.5M NaEDTA followed by 5 mM NiCl2 in immobilisation buffer (20 mM HEPES, 150 mM NaCl, pH 7.4). Recombinant human His-MEK1 and His-MEK2 (500 nM, ThermoFisher Scientific, cat. PV3303 and PV3615, respectively) were injected for 15 min at 10 μl min^−1 over separate active flow cells. All immobilisation was carried out at 25° C. Following immobilisation, the temperature was lowered to 15° C., and the buffer changed to 20 mM HEPES, 150 mM NaCl, 5% DMSO pH 7.4. Samples of PD98059 (2.5-30 μM in running buffer) and BT2 (1.25-15 μM) were injected at a flow rate of 30 μl min^−1 over immobilised MEK1 and MEK2. Solvent correction was applied to the data using a DMSO standard curve. Data were analysed using the Biacore T200 Evaluation software. Prior to SPR, limits of compound solubility were determined using ^1H 1D NMR.

[2] = molecular target: T2, Recombinant human His-MEK2 (Homo sapiens, UniProt P36507); assay: SPR (Biacore T200) on immobilised His-MEK2; type: binding; conditions: 15° C.; 20 mM HEPES, 150 mM NaCl, 5% DMSO pH 7.4
T2 construct: purchased ThermoFisher Scientific PV3615
Experimental: as §1

[3] = Limit of compound solubility by 1H 1D NMR; type: physicochemical; conditions: 1H 1D NMR spectroscopy
Experimental: as §1

T2 sequence (P36507 whole entry): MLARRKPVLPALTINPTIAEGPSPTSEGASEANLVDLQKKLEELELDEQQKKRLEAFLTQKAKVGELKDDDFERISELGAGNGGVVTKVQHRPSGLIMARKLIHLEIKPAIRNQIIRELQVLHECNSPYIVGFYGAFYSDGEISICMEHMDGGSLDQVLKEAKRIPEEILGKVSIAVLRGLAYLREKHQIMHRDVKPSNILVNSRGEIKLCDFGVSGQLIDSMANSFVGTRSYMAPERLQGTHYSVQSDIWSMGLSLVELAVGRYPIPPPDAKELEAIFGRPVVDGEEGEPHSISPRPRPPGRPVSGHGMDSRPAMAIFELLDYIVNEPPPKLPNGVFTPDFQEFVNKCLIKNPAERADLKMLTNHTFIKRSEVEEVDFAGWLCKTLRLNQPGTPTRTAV
T1 sequence (Q02750 whole entry): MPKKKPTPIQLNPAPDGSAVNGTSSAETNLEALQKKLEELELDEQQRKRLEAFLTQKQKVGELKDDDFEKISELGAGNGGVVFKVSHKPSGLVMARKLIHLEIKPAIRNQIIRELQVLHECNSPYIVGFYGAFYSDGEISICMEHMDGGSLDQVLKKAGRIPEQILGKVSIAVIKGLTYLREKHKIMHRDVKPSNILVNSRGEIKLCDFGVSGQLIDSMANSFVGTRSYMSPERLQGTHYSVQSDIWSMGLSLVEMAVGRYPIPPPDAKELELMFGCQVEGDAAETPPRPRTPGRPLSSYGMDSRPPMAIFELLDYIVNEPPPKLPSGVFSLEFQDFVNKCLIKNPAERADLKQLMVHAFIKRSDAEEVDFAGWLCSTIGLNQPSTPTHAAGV

binding to His-MEK1 (SPR) [1]: some interaction with MEK1
binding to His-MEK2 (SPR) [2]: but not MEK2
solubility [3]: 8 ± 2 µM (≈ 2.84 µg/mL)
Structure (SMILES): CCN1C(=O)c2cc(NC(=O)OCC(C)C)ccc2Oc2ccccc21 [BT2-IC, isobutyl (10-ethyl-11-oxo-10,11-dihydrodibenzo[b,f][1,4]oxazepin-2-yl)carbamate]
inhibition of network formation on Matrigel (FIG. 5B) (HMEC-1; 1 μM): not at 1 μM
inhibition of network formation on Matrigel (FIG. 13B) (HMEC-1; 3 μM): some inhibition of network formation at higher concentrations; also recorded: inhibited both ERK phosphorylation (FIG. 13A) and network formation (FIG. 13B) at 3 μM (albeit less potently than BT2)
IL-1β-inducible ERK phosphorylation (FIG. 5D) (ERK phosphorylation; 1 μM): not at 1 μM
IL-1β-inducible ERK phosphorylation (FIG. 13A) (ERK phosphorylation; 3 μM): inhibited both ERK phosphorylation (FIG. 13A) and network formation (FIG. 13B) at 3 μM (albeit less potently than BT2)
